The nature of data set [1]: Distribution of FK228 and metabolites between plasma and RBC after rat whole blood incubation. It is filed as in vitro ADME, rat. The note with it: for detection in plasma fraction / detection in RBC cytosol / homogenate: FK228 100 μg/mL, rat whole blood, 37° C., 60 min. How it is done: After centrifugation, the plasma was removed and the RBC fraction was washed 8 times with 2 mL saline each. […] The RBC debris was further washed with 1 mL acetonitrile each 8 times.
The blood was centrifuged to remove plasma. To the RBC fraction was added blank rat plasma to restore the initial volume, and the mixture was homogenized by a glass tissue grinder (400 strokes). The plasma and RBC homogenates were analyzed by ESI ion-trap LC-MS. A Waters Spherisorb S3 ODS1 column (2 mm ID×10 cm, particle 5 μm, Waters Corporation, Milford, Mass., USA) with a gradient elution was used. The gradient was initiated with 25% acetonitrile in 0.1% acetic acid for 5 minutes, followed by a linear increase to 70% acetonitrile over 5 minutes, which was kept constant for 15 minutes. The mobile phase was then returned linearly to the original condition over 3 minutes, which was then maintained for 7 minutes. The cycle time for each analysis was 35 minutes.

The subject of the next data set is RBC GSH. Briefly: RBC GSH depletion by DEM pretreatment in the rat. Format: in vivo.
Data set [2] concerns the target multidrug resistant-associated protein 1 (MRP1) (Homo sapiens, UniProt P33527). The note with it: multiple cellular models.
The nature of data set [3]: In vitro rat blood distribution / RBC uptake of FK228.
The conditions of data set [4]: patients, 4-hour infusion; cited from earlier work.
Data set [5] is described as follows: FK228 stability and protein binding in human plasma. Format: in vitro ADME.
The target in data set [6] is T1, Pgp (Homo sapiens, UniProt P08183). Particulars: multiple cellular models.
T1 sequence (P08183 whole entry): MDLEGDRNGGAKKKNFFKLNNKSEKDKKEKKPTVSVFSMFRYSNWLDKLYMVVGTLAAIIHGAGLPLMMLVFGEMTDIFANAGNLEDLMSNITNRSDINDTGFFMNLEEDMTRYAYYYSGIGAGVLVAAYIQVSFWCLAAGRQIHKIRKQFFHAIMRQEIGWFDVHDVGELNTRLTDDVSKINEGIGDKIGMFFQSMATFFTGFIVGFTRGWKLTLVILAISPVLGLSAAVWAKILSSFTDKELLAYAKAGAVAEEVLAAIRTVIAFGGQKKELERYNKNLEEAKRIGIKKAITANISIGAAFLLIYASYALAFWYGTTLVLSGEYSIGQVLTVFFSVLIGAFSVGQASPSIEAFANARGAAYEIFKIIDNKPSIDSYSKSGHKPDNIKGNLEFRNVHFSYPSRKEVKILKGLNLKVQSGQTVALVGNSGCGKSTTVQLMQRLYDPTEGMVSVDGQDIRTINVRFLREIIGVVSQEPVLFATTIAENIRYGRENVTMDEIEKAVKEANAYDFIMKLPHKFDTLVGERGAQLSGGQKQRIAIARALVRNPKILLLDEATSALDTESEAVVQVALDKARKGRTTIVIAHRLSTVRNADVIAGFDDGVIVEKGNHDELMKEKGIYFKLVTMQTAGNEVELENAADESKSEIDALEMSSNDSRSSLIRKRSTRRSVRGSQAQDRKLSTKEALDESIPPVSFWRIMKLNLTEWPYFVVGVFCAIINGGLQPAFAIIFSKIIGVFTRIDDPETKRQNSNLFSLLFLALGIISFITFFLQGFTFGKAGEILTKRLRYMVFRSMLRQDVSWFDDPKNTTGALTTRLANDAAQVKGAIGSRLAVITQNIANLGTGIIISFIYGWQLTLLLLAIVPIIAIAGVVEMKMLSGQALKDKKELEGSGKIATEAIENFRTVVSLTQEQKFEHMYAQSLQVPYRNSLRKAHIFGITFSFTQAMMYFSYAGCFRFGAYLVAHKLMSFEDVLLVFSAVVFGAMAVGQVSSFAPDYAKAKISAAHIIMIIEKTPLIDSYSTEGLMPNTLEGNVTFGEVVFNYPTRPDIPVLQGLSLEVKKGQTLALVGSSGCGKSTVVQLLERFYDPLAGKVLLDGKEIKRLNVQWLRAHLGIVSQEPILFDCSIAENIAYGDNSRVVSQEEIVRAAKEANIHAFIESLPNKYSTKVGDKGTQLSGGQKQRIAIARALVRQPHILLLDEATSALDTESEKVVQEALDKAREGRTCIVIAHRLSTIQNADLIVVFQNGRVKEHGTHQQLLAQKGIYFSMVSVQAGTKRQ
Data set [7] in a line: Rat pharmacokinetics of FK228. Format: in vivo. Particulars: for AUC(0-inf) / Cmax / MRT / clearance / Vd: male, Sprague-Dawley, plasma, iv; for clearance: read-out: Cltotal; for Vd: read-out: Vdss. How it is done: (§1) Pharmacokinetics and tissue distribution studies in the rat Twenty-three male S.D. rates weighing 250-300 g were divided into 5 groups. All rats were cannulated by the left jugular vein under ketamine anesthesia (im, 100 mg/kg) for drug administration and/or blood sampling. The rats were kept in metabolism cages and allowed to recover overnight with food and water given ad libitum. The animal protocols were approved by the Institutional Laboratory Animal Care and Use Committee (ILACUC) of the Ohio State University Laboratory Animal Resources (ULAR), and adhered to the guideline and “Principles of Laboratory Animal Care” by National Institutes of Health (NIH).
(§2) At the time schedule of predose, 5, 10, 20, […], 60, 120, 180, 300 minutes after doing, blood samples of 0.2 mL each were withdrawn from the same cannula with an equal volume of normal saline. Plasma was separated immediately by centrifugation (10,000 g×0.5 min.) extracted with 10-volume ethyl acetate. After centrifugation, the organic layer was transferred into a clean conical Falcon polypropylene tube, and evaporated under a stream of nitrogen. […] Weighed wet organ tissue samples were homogenized in appropriate volumes of blank human plasma with an Ultra-Turrax SDT1610 electric homogenizer (Tekmar, Cincinnati, Ohio) at the highest speed setting for 10 seconds 4 times. […] The homogenates were then extracted and determined as in plasma samples (Chan, et al. 1997; Li and Chan, 2000). Feces samples were homogenized similarly as above. After centrifugation, the supernatant was extracted and determined as plasma samples.
(§3) A 2 mm×50 mm Keystone BetaBasic-C8 column (Keystone, Bellefonte, Pa.) and an isocratic elution were used with the mobile phase consisting of 70% acetonitrile and 0.1% acetic acid at a flow rate of 0.2 mL/min. The flow leaving the HPLC column was split in a ratio of 20:1, with only 10 μL/min. entering the mass spectrometer. All samples were determined by individual calibration curves using specific blank sample matrix. […] While the recoveries from rat muscle and fat samples were further normalized to whole body weight assuming the muscle and fat compose 40 and 4% of the rat total body weight, respectively (Davies and Morris, 1993).

For data set [8] the following is noted: i.v. bolus, for 250 g rats; cited from earlier work.
The nature of data set [9]: Tissue distribution and dose recovery (mass balance) of FK228 in the rat. Particulars: for dose excreted: male, Sprague-Dawley, intravenous. It is filed as in vivo. How it is done: as §1, §2, §3
The target in data set [10] is T1, Pgp. The note with it: earlier finding; cited from earlier work.
A further data set is described as follows: in vitro. Particulars: for half-life at 100 μg/mL: rat, plasma; for time to plateau or maximum concentration: FK228 100 μg/mL, 37° C. It is filed as in vitro ADME. From the text: Serial samples were removed at pre-selected time points up to […]. FK228 and its major metabolites were monitored by ESI LC_MS on the API instrument.
In the next data set the test system is T2, HDAC.
T2 construct: other: n=3; other: relative to FK228
Format: biochemical. The note with it: for IC50: n=3, read-out: IC50, HDAC inhibitory activity; for times more potent as HDAC inhibitors than FK228: relative to FK228. As for the experimental part:
To the plasma was added 2 mL acetonitrile to precipitate the proteins. After centrifugation, the acetonitrile layer was transferred to a clean Falcon polypropylene tube and evaporated to dryness under a stream of nitrogen. […] Their HDAC inhibitory activities were assayed by using the Fluor de Lys HDAC Fluorescent Activity Assay/Drug Discovery Kit (BioMol, Plymouth Meeting, Pa.).

[11] abbreviates: after 1 hour whole blood incubation at 37° C.
Where [12] appears, read: 2 mg/kg, I.v. bolus (n = 6), 2 mg/kg.
The mark [13] stands for this setting: I.v. bolus with CsA pretreatment (n = 3).
Setting [14] is: I.v. bolus with DEM pretreatment (n = 5).
[15] abbreviates: rat plasma containing 10 mM GSH.

“Also recorded” adds a separate entry of the source. Counter-ions that a name gives are not always drawn. Like-named read-outs stand apart in the source and are kept apart here.

Sequence of multidrug resistant-associated protein 1 (MRP1) (P33527 whole entry): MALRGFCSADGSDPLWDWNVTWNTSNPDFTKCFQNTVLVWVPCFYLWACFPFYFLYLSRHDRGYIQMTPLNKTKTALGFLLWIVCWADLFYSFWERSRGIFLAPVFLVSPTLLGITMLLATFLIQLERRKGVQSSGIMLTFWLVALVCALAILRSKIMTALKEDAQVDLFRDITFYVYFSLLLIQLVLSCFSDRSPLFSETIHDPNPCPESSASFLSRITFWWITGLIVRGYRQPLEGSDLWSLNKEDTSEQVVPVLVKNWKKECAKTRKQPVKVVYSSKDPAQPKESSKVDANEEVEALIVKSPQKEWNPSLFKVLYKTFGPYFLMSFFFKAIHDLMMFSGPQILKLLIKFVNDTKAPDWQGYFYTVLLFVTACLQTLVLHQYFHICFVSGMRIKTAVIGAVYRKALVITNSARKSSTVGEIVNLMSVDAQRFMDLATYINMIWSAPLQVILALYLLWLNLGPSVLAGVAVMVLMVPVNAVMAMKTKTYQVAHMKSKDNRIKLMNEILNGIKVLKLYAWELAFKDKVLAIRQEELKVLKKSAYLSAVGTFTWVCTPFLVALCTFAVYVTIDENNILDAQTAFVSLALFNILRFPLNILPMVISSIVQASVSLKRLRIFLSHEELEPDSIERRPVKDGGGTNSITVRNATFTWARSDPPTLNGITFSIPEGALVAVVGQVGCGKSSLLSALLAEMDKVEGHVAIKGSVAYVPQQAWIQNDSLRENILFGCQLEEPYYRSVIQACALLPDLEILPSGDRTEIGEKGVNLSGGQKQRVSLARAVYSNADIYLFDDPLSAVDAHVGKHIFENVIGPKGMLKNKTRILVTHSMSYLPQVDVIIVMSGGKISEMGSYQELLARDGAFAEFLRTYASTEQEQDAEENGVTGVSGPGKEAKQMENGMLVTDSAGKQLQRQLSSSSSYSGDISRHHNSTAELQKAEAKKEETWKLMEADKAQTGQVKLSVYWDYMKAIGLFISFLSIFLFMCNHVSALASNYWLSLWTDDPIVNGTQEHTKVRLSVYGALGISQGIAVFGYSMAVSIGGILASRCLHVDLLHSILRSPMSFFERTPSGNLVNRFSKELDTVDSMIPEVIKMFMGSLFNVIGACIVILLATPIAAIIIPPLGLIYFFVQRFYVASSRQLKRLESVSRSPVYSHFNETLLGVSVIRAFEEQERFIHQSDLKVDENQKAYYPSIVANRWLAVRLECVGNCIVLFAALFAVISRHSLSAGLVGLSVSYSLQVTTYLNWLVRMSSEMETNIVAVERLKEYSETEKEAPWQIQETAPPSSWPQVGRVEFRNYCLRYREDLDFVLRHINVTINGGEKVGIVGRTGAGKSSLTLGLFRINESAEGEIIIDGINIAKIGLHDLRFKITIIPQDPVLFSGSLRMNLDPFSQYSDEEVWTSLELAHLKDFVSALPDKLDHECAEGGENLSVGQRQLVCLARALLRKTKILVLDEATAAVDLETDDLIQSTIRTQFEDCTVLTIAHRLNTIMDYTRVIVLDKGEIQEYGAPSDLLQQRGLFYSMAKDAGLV

`CC(C)C1NC(=O)CC(/C=C/CCS)OC(=O)C(C(C)C)NC2(O)SCC(NC1=O)C(=O)NC2C(C)SCC(NC(=O)CCC(N)C(=O)O)C(=O)NCC(=O)O` (centres unmarked) [metabolite F]: the “detection in plasma fraction” value in data set [1] was “detected”. For the same compound, the “fate in rat RBC” value in [1] (setting [11]) was “pumped out of rat RBC”.
As for `CCOC(=O)/C=C\C(=O)OCC` [DEM, diethyl maleate], the “depletion of RBC GSH” value in the data set with RBC GSH worked out at 50%.
Broadly, the AUC(0-inf) is the area under the concentration-time curve extrapolated to infinity. As usually defined, the Cmax is the maximum level reached in the sampled fluid or tissue. What is called MRT is a mean duration of stay, worked out from the concentration-time curve. `C/C=C1\NC(=O)[C@H]2CSSCC/C=C/[C@H](CC(=O)N[C@H](C(C)C)C(=O)N2)OC(=O)[C@H](C(C)C)NC1=O` [FK228, (E)-(1S,4S,10S,21R)-7-[(Z)-ethylidene]-4,21-diisopropyl-2-oxz-12,13-dithia-5,8,20,23-tetraazabicyclo[8,7,6]-tricos-16ene-3,6,9,19,22-pentanone]: the MRP1 substrate entry in data set [2] is “substrate”. Besides, in data set [3] (male, Sprague-Dawley, rat, fresh heparinized whole blood), the recovery at 1 h, 10 μg/mL was less than 35%. In addition, in data set [3] (rat blood at 37° C., within 2 minutes, 0.1-10 μg/mL), the “plasma FK228 remaining” value was “over 20%”. For the same compound, the “maximum tolerated dose (MTD)” value in data set [4] is on record as 17.8 mg/m^2. The “binding to plasma proteins” value in data set [5] is recorded as “over 90%”. The stability entry in [5] is “stable”. Besides, the Pgp substrate result at Pgp [6] was “substrate”. Further, in data set [7] (following i.v. infusion), the “plasma FK228 concentrations” value is on record as less than 20 nM. The AUC(0-inf) in data set [7] (2 mg/kg, I.v. bolus (n = 6)) is 0.0683 µM·h; in [7] (setting [13]) it was 0.0667 µM·h; in [7] (setting [14]), 0.0903 µM·h; in [7] (I.v. infusion (n = 6)) it was 0.103 µM·h. Also, the Cmax turned out to be 490 ± 164 nM in data set [7] (2 mg/kg, I.v. bolus (n = 6)); 25.3 ± 3.7 nM in data set [7] (2 mg/kg, I.v. infusion (n = 6)); 548 ± 249 nM in data set [7] (setting [13]); 1180 ± 637 nM in data set [7] (I.v. bolus with DEM pretreatment (n = 5), called C0 in text). Besides, the MRT in data set [7] (2 mg/kg, I.v. bolus (n = 6)) is 36.3 min; in data set [7] (2 mg/kg, I.v. infusion (n = 6)) it was 17.7 min; in data set [7] (setting [13]), 27 min; in data set [7] (setting [14]) it was 30 min. Further, the clearance in data set [7] (setting [12]) came out at 237 ± 58 mL/min; in data set [7] (setting [13]), 249 ± 18 mL/min; in [7] (setting [14]), 276 ± 152 mL/min; in [7] (I.v. infusion (n = 6)), 179 ± 27.5 mL/min. For the same compound, the Vd in [7] (setting [12]) is 32.7 ± 4.51 L/kg; in [7] (2 mg/kg, I.v. infusion (n = 6)) it was 10.8 ± 2.7 L/kg; in data set [7] (setting [13]), 29 ± 3.2 L/kg; in data set [7] (setting [14]) it was 22.4 ± 13 L/kg; in [7] (I.v. infusion (n = 6)) it was 11.8 ± 2.7 L/kg. In addition, in [8], the distribution volume is 22.3 ± 7.3 L/kg. In data set [8], the total body clearance is 425.3 ± 117.7 mL/min. In [9], the “total amount of FK228 in 24-hour urine and 6-hour bile” value is on record as “less than 11 % of the dose”. In addition, the “total recovery of intact FK228 from 9 major organ tissues” value in data set [9] (6 hours) was determined as 2.5±1.26%; in data set [9] (24 hours) it was 0.56±0.3%. The dose excreted in data set [9] (bile, n=3, read-out: dose recovery from 6 hour bile) came out at 4.76 ± 0.34%; in [9] (urine, 2 mg/kg, n=6, read-out: dose recovery from 24 hour urine), 5.9 ± 1.6%. The P-glycoprotein substrate entry on Pgp [10] is “substrate”.
What is called IC50 is the point on the concentration scale where inhibition reaches its midpoint. Turning to `C/C=C1\NC(=O)C(CS)NC(=O)C(C(C)C)NC(=O)CC(/C=C/CCS)OC(=O)C(C(C)C)NC1=O` (centres unmarked) [metabolite A], in “in vitro”, the half-life at 100 μg/mL is 18.5 min. Further, in the data set with HDAC, the IC50 came to 1.65 ± 0.24 nM and the “times more potent as HDAC inhibitors than FK228” value is on record as “at least 46 times”. Besides, the “fate in rat RBC” value in data set [1] is on record as “pumped out of rat RBC”.
Take `CC(C)C1NC(=O)CC(/C=C/CCS)OC(=O)C(C(C)C)NC(=O)C2NC(=O)C(CSC2C)NC1=O` (centres unmarked) [metabolite B]: in “in vitro” (rat plasma containing 10 mM GSH, in words), the stability of metabolite result is “instable”. Moreover, the half-life at 100 μg/mL in “in vitro” (read-out: terminal half life) was found to be 14.4 min. In the data set on HDAC, the half-maximal inhibitory concentration (IC50) was found to be 0.94 ± 0.14 nM and the “times more potent as HDAC inhibitors than FK228” value is on record as not below 82 times. Also, in data set [1], the “detection in RBC cytosol / homogenate” value is “detected” and the “detection in plasma fraction” value was “detected”. Also, in data set [1] (setting [11]), the “fate in rat RBC” value is listed as “remained in rat RBC”.
With `CC(C)C1NC(=O)CC(/C=C\CCSSCC(NC(=O)CCC(N)C(=O)O)C(=O)NCC(=O)O)OC(=O)C(C(C)C)NC(=O)C2NC(=O)C(CSC2C)NC1=O` (centres unmarked) [metabolite D], in the data set “in vitro” (setting [15]), the “time to plateau or maximum concentration” value is 1 h. Also, in the data set with HDAC, the IC50 was found to be 15.9 ± 2.7 nM. Besides, in data set [1], the “detection in RBC cytosol / homogenate” value was “detected” and the “detection in plasma fraction” value is on record as “detected”. Moreover, the “fate in rat RBC” value in data set [1] (setting [11]) is “remained in rat RBC”.
Regarding `CC(C)C1NC(=O)CC2/C=C/CCSSCC(NC1=O)C(=O)NC(C(C)SCC(NC(=O)CCC(N)C(=O)O)C(=O)NCC(=O)O)C(=O)NC(C(C)C)C(=O)O2` (centres unmarked) [metabolite E], in the data set “in vitro” (setting [15]), the “time to plateau or maximum concentration” value amounted to 2 h. In data set [1], the “detection in RBC cytosol / homogenate” value is reported as “detected; also recorded: minor peak” and the “detection in plasma fraction” value is recorded as “minor peak”.

These data come from patent publication US7943568B2, “Antitumor agents” (The Ohio State University Research Foundation, priority 2005, dated 2011).
